Data from ChEMBL document CHEMBL6182948 (J Med Chem, 2025).

Assays:
[1] = AUC (0 to t) in male Sprague-Dawley rat at 2 mg/kg, iv measured up to 24 hrs by LC-MS/MS analysis; type: ADME, organism-based; conditions: in vivo
[2] = Apparent volume of distribution in male Sprague-Dawley rat at 2 mg/kg, iv measured up to 24 hrs by LC-MS/MS analysis; type: ADME, organism-based; conditions: in vivo, read-out: Vz
A549/TR [3] = experiment: Synergistic antiproliferative activity against human A549/Taxol cells assessed as combination index at 5 uM in presence of 0.5 uM paclitaxel by Chou-Talalay method; type: functional
A549/TR [4] = experiment: Synergistic antiproliferative activity against human A549/Taxol cells assessed as combination index at 10 uM in presence of 0.025 uM paclitaxel by Chou-Talalay method; type: functional
A549/TR [5] = experiment: Synergistic antiproliferative activity against human A549/Taxol cells assessed as combination index at 20 uM in presence of 0.05 uM paclitaxel by Chou-Talalay method; type: functional
[6] = Oral bioavailability in male Sprague-Dawley rat at 10 mg/kg measured up to 24 hrs by LC-MS/MS analysis; type: ADME, organism-based; conditions: in vivo
A549/TR [7] = experiment: Synergistic antiproliferative activity against human A549/Taxol cells assessed as combination index at 20 uM in presence of 0.1 uM paclitaxel by Chou-Talalay method; type: functional
A549/TR [8] = experiment: Synergistic antiproliferative activity against human A549/Taxol cells assessed as combination index at 2.5 uM in presence of 0.5 uM paclitaxel by Chou-Talalay method; type: functional
A549/TR [9] = experiment: Synergistic antiproliferative activity against human A549/Taxol cells assessed as combination index at 10 uM in presence of 0.05 uM paclitaxel by Chou-Talalay method; type: functional
[10] = AUC (0 to infinity) in male Sprague-Dawley rat at 10 mg/kg, po measured up to 24 hrs by LC-MS/MS analysis; type: ADME, organism-based; conditions: in vivo
[11] = MRT (0 to t) in male Sprague-Dawley rat at 10 mg/kg, po measured up to 24 hrs by LC-MS/MS analysis; type: ADME, organism-based; conditions: in vivo
[12] = Clearance in male Sprague-Dawley rat at 2 mg/kg, iv measured up to 24 hrs by LC-MS/MS analysis; type: ADME, organism-based; conditions: in vivo
A549/TR [13] = experiment: Inhibition of cell migration in human A549/Taxol cells assessed as wound closure at 5 uM measured after 24 hrs by scratch-wound healing assay relative to control; type: functional; parameters: scale not given: the % may be the effect or the level left
[14] = Tmax in male Sprague-Dawley rat at 10 mg/kg, po measured up to 24 hrs by LC-MS/MS analysis; type: ADME, organism-based; conditions: in vivo
[15] = AUC (0 to infinity) in male Sprague-Dawley rat at 2 mg/kg, iv measured up to 24 hrs by LC-MS/MS analysis; type: ADME, organism-based; conditions: in vivo
A549/TR [16] = experiment: Inhibition of cell migration in human A549/Taxol cells assessed as suppression of wound closure measured after 24 hrs by scratch-wound healing assay; type: functional, cell-based; conditions: dose 2.5-5 µM
A549/TR [17] = experiment: Synergistic antiproliferative activity against human A549/Taxol cells assessed as combination index at 5 uM in presence of 0.05 uM paclitaxel by Chou-Talalay method; type: functional
A549/TR [18] = experiment: Synergistic antiproliferative activity against human A549/Taxol cells assessed as combination index at 2.5 uM in presence of 0.05 uM paclitaxel by Chou-Talalay method; type: functional
[19] = MRT (0 to infinity) in male Sprague-Dawley rat at 10 mg/kg, po measured up to 24 hrs by LC-MS/MS analysis; type: ADME, organism-based; conditions: in vivo
A549/TR [20] = experiment: Synergistic antiproliferative activity against human A549/Taxol cells assessed as combination index at 10 uM in presence of 0.5 uM paclitaxel by Chou-Talalay method; type: functional
A549/TR [21] = experiment: Synergistic antiproliferative activity against human A549/Taxol cells assessed as combination index at 20 uM in presence of 0.5 uM paclitaxel by Chou-Talalay method; type: functional
A549/TR [22] = experiment: Inhibition of cell invasion in human A549/Taxol cells assessed as invasive cells at 2.5 uM incubated for 24 hrs by transwell invasion assay relative to control; type: functional; parameters: scale not given: the % may be the effect or the level left
[23] = AUC (0 to t) in male Sprague-Dawley rat at 10 mg/kg, po measured up to 24 hrs by LC-MS/MS analysis; type: ADME, organism-based; conditions: in vivo
[24] = Half life in male Sprague-Dawley rat at 2 mg/kg, iv measured up to 24 hrs by LC-MS/MS analysis; type: ADME, organism-based; conditions: in vivo
A549/TR [25] = experiment: Synergistic antiproliferative activity against human A549/Taxol cells assessed as combination index at 5 uM in presence of 0.025 uM paclitaxel by Chou-Talalay method; type: functional

AUC(0-t) at 24 h [1]: 2290 ng·h/mL | Vd [2]: 4.77 L/kg | bioavailability [6]: 2.08% | AUC(0-inf) [10]: 239 ng·h/mL | MRT last at 24 h [11]: 2.32 h | clearance [12]: 14.7 mL/min/kg | Tmax [14]: 1 h | AUC(0-inf) [15]: 2300 ng·h/mL | MRT inf [19]: 2.42 h | AUC(0-t) at 24 h [23]: 236 ng·h/mL | half-life [24]: 3.78 h
SMILES: O=C(Nc1cc(Cl)cc(Cl)c1)c1nc(-c2cccc(Cl)c2)cs1
CI (A549/TR [3]): 0.48 | CI (A549/TR [4]): 0.86 | CI (A549/TR [5]): 0.38 | CI (A549/TR [7]): 0.63 | CI (A549/TR [8]): 0.24 | CI (A549/TR [9]): 0.2 | Activity (A549/TR [13]): 3% | inhibition (A549/TR [16]): Dose-dependent-effect | CI (A549/TR [17]): 0.16 | CI (A549/TR [18]): 0.08 | CI (A549/TR [20]): 1.14 | CI (A549/TR [21]): 2.15 | Activity (A549/TR [22]): 35.7% | CI (A549/TR [25]): 0.71
